Experimental findings from ChEMBL document CHEMBL1157186, “Characterization of chemical components in extracts from Si-wu decoction with proliferation-promoting effects on rat mesenchymal stem cells” (Bioorg Med Chem, 2008) are described below.

This assay relates to Mesenchymal stem cell. The assay is described as follows: Induction of proliferation of rat mesenchymal stem cells by MTT assay. Type of assay: functional, cell-based. For orientation: Tetrazolium assays rely on reduction of a dye to a coloured formazan, in cell work by metabolically active cells.

Active and inactive are the calls of the source. The calls are words filed in the database; no cut-off is given here.

As for `CCC/C=C1\OC(=O)C2=C1CCC=C2`, the result was Active.
Regarding `CC/C=C1\OC(=O)C2=C1C=CC(O)C2O` (configuration not stated), the result was Active.
